Laboratory results from BigSolDB 2.1.

OC(Cn1cncn1)(Cn1cncn1)c1ccc(F)cc1F
solubility (mole fraction) (in ethanol, 293.15 K): 0.0105 | solubility (mole fraction) (in ethanol, 298.15 K): 0.0123 | solubility (mole fraction) (in ethanol, 303.15 K): 0.014 | solubility (mole fraction) (in ethanol, 308.15 K): 0.0157 | solubility (mole fraction) (in ethanol, 313.15 K): 0.0183 | solubility (mole fraction) (in ethanol, 318.15 K): 0.023 | solubility (mole fraction) (in ethanol, 323.15 K): 0.0282 | solubility (mole fraction) (in water, 293.15 K): 7.76e-05 | solubility (mole fraction) (in water, 298.15 K): 7.99e-05 | solubility (mole fraction) (in water, 303.15 K): 8.28e-05 | solubility (mole fraction) (in water, 308.15 K): 8.58e-05 | solubility (mole fraction) (in water, 313.15 K): 9.06e-05 | solubility (mole fraction) (in water, 318.15 K): 9.59e-05 | solubility (mole fraction) (in water, 323.15 K): 0.000104
